The text below walks through data of US10934272B2, “Pyridyl derivatives as bromodomain inhibitors” (GlaxoSmithKline Intellectual Property (No. 2) Limited, priority 2016, dated 2021).

Assay [1] has as its target T1, BRD4 BD2 (Homo sapiens, UniProt O60885, Y97A).
T1 construct: BRD4 (1-477) (Y97A) and (Y390A); made in house; host or cells: E. coli (pET15b vector)
Kind of assay: TR-FRET competition assay, BRD4 BD2 (single mutant tandem bromodomain protein). Particulars: for IC50: read-out: pIC50 in the BRD4 BD2 assay (converted); for selectivity for BRD4 BD2 over BRD4 BD1: Selectivity = BRD4 BD2 pIC50 - BRD4 BD1 pIC50, in at least one of the TR-FRET assays; for fold selective for BRD4 BD2 over BRD4 BD1: from the pIC50 difference BRD4 BD2 - BRD4 BD1. In kind it is binding. The method, then: Time Resolved Fluorescence Resonance Energy Transfer (TR-FRET) Assay
Bromodomain binding was assessed utilising a time resolved fluorescent resonance energy transfer (TR-FRET) competition assay. To enable this approach a known, high affinity, pan-BET interacting small molecule was labelled with Alexa Fluor® 647, which is a far-red-fluorescent dye (Reference Compound X). Reference Compound X acts as a reporter of bromodomain binding and is the acceptor fluorophore component of the TR-FRET pair. Europium chelate, conjugated to an anti-6*His antibody, was utilised as the donor fluorophore in the TR-FRET pair. […] A TR-FRET signal is generated when the donor and acceptor fluorophores are in close proximity, between 20-80 Å, which is enabled in this assay by binding of Reference Compound X to the bromodomain protein.
If the acceptor fluorophore is in close proximity then energy transfer can occur, which leads to emission of Alexa Fluor® 647 at λ665 nm. In the presence of competitor compound, Reference Compound X can be displaced from binding to the bromodomain. If displacement occurs, the acceptor fluorophore is no longer in proximity to the donor fluorophore, which prevents fluorescent energy transfer and, subsequently, a loss of Alexa Fluor® 647 emission at λ665 nm.
The competition of the compounds of formula (I) with Reference Compound X for binding to the BET family (BRD2, BRD3, BRD4 and BRDT) was assessed using protein truncates spanning both bromodomain 1 (BD1) and bromodomain 2 (BD2). In order to monitor differential binding to either BD1 or BD2, single residue mutations of key tyrosines to alanine were made in the acetyl lysine binding pockets. To validate this approach, a double residue mutant tandem domain protein was produced for each of the BET family members. Utilising a Fluorescence Polarisation approach, binding affinities for each of the single and double mutants for Reference Compound X were determined. […] Final purification was completed by Superdex 200 prep grade size exclusion column. Purified protein was stored at −80° C. in 20 mM HEPES pH 7.5 and 100 mM NaCl.
Protocol for Bromodomain BRD2, 3, 4 and T, BD1+BD2 mutant TR-FRET competition assays:
All assay components were dissolved in an assay buffer composing of 50 mM HEPES pH7.4, 50 mM NaCl, 5% Glycerol, 1 mM DTT and 1 mM CHAPS. […] The solution containing bromodomain and Reference Compound X was added to dose response dilutions of test compound or DMSO vehicle (a maximum of 0.5% DMSO is used in this assay) in Greiner 384 well black low volume microtitre plates and subsequently incubated for 30 minutes at room temperature. An equal volume of 3 nM of anti-6*His Europium chelate was added to all wells, followed by a further 30 minute incubation at room temperature. TR-FRET was detected using a Perkin Elmer Multimode plate reader, by exciting the donor fluorophore at A337 nm and subsequently, after a delay of 50 μsecs, measuring emission of the donor and acceptor fluorophores at A615 nm and λ665 nm, respectively. In order to control these assays, 16 replicates each of uninhibited (DMSO vehicle) and inhibited (10*IC50 concentrations of Example 11 of WO 2011/054846A1) TR-FRET assays were included on every microtitre plate.
cA four parameter curve fit of the following form was then applied: y=a+((b−a)/(1+(10^x/10^c)^d)
Where ‘a’ is the minimum, ‘b’ is the Hill slope, ‘c’ is the pIC50 and ‘d’ is the maximum.
A general note: TR-FRET usually uses a lanthanide donor and a delayed reading to cut background.

The test system of assay [2] is BET family (BRD2, BRD3, BRD4 and BRDT) tandem bromodomain proteins, Tyrosine to Alanine mutants. Nature of the assay: Fluorescence Polarisation binding of Reference Compound X to single and double mutant tandem BET proteins. Further details: species or system Human. The method, then: The competition of the compounds of formula (I) with Reference Compound X for binding to the BET family (BRD2, BRD3, BRD4 and BRDT) was assessed using protein truncates spanning both bromodomain 1 (BD1) and bromodomain 2 (BD2). In order to monitor differential binding to either BD1 or BD2, single residue mutations of key tyrosines to alanine were made in the acetyl lysine binding pockets. To validate this approach, a double residue mutant tandem domain protein was produced for each of the BET family members. Utilising a Fluorescence Polarisation approach, binding affinities for each of the single and double mutants for Reference Compound X were determined. […] The affinities of the single mutated bromodomain tandem proteins for Reference Compound X were equi-potent with the corresponding non-mutated BET protein. […] Final purification was completed by Superdex 200 prep grade size exclusion column. Purified protein was stored at −80° C. in 20 mM HEPES pH 7.5 and 100 mM NaCl. Protein identity was confirmed by peptide mass fingerprinting and predicted molecular weight confirmed by mass spectrometry.
On the technique in general: In fluorescence polarisation assays a small probe gives low polarisation when free and higher when bound to something large.

[3] abbreviates: TR-FRET competition with Reference Compound X, values exemplary only.

As to `CNC(=O)c1cc(C(=O)NCC2CCOCC2)cc(Cc2ccccc2)n1` [Example 87, 6-Benzyl-N^2-methyl-N^4-((tetrahydro-2H-pyran-4-yl)methyl)pyridine-2,4-dicarboxamide], in assay [1] (setting [3]), the IC50 was 1 to 10 µM.
Take `CNC(=O)c1cc(C(=O)NCC2CCCO2)cc(Cc2ccccc2)n1` (racemic) [Example 84, (+/−)-6-Benzyl-N^2-methyl-N^4-((tetrahydrofuran-2-yl)methyl)pyridine-2,4-dicarboxamide]: in assay [1] (setting [3]), the IC50 is 1 to 10 µM.
For `CNC(=O)c1cc(C(=O)NCC2CCCCO2)cc(Cc2ccccc2)n1` (racemic) [Example 85, (+/−)-6-Benzyl-N^2-methyl-N^4-((tetrahydro-2H-pyran-2-yl)methyl)pyridine-2,4-dicarboxamide], in assay [1] (setting [3]), the IC50 is 1 to 10 µM.
Regarding `CNC(=O)c1cc(C(=O)N[C@H]2[C@@H]3COC[C@@H]32)cc(C(CF)c2ccccc2)n1` (mixture of isomers) [Example 164, (+/−)-N^4-((1R,5S,6r)-3-Oxabicyclo[3.1.0]hexan-6-yl)-6-(2-fluoro-1-phenylethyl)-N^2-methylpyridine-2,4-dicarboxamide], the IC50 in assay [1] (setting [3]) is 1 to 10 µM.
As to `CNC(=O)c1cc(C(=O)NCCCC2OCC(N)CO2)cc(C(OC)c2ccccc2)n1` [Example 161, N^4-(3-((2r,5S)-5-Amino-1,3-dioxan-2-yl)propyl)-6-((R*)-methoxy(phenyl)methyl)-N2-methylpyridine-2,4-dicarboxamide], in assay [1], the “selectivity for BRD4 BD2 over BRD4 BD1” value is on record as 3.2 log units and the “fold selective for BRD4 BD2 over BRD4 BD1” value is “at least 1000 fold”. Further, the “pIC50 in the BRD4 BD2 assay” value in assay [1] (setting [3]) turned out to be 7.6 log10 units.
As for `COc1ccc2c(c1)C(c1ccc(Cl)cc1)=N[C@@H](CC(=O)NCCCCCNC(=O)CCCCCC1(C)/C(=C/C=C/C=C/C3=[N+](CCCCS(=O)(=O)O)c4ccc(S(=O)(=O)O)cc4C3(C)C)N(CCCCS(=O)(=O)[O-])c3ccc(S(=O)(=O)O)cc31)c1nnc(C)n1-2` (stereo partly drawn) [Reference Compound X], the “reduction in Kd (affinity) of double mutant tandem proteins in comparison to non mutated, wild type tandem BET proteins” value in assay [2] (double residue mutant tandem domain protein, each BET family member) is reported as greater than 1000 fold. In addition, the “reduction of the Kd of the interaction between the mutated bromodomain and Reference Compound X” value in assay [2] (single mutations of Tyrosine to Alanine) is recorded as greater than 1000 fold.
On to `CNC(=O)c1cc(C(=O)N[C@H]2[C@@H]3COC[C@@H]32)cc([C@H](CF)c2ccccc2)n1` (single isomer, unassigned) [Example 166, N^4-((1R,5S,6r)-3-Oxabicyclo[3.1.0]hexan-6-yl)-6-((R*)-2-fluoro-1-phenylethyl)-N^2-methylpyridine-2,4-dicarboxamide], for which the IC50 in assay [1] (setting [3]) is 1 to 10 µM.
As to `CNC(=O)c1cc(C(=O)NCC[C@H]2CNCCO2)cc(C(C)c2ccccc2)n1` (single isomer, unassigned) [Example 41, N^2-Methyl-N^4-(2-((S)-morpholin-2-yl)ethyl)-6-((S*)-1-phenylethyl)pyridine-2,4-dicarboxamide], in assay [1], the “selectivity for BRD4 BD2 over BRD4 BD1” value is recorded as 3.0 log units and the “fold selective for BRD4 BD2 over BRD4 BD1” value is “at least 1000 fold”. Further, the IC50 in assay [1] (setting [3]) is 0.0398 µM.
Take `CNC(=O)c1cc(C(=O)N[C@H]2[C@@H]3COC[C@@H]32)cc(Cc2cccc3c2CCN3)n1` [Example 130, N^4-((1R,5S,6r)-3-Oxabicyclo[3.1.0]hexan-6-yl)-6-(indolin-4-ylmethyl)-N^2-methylpyridine-2,4-dicarboxamide]: the IC50 in assay [1] (setting [3]) was 0.0501 µM.
As to `CNC(=O)c1cc(C(=O)N[C@H]2[C@@H]3COC[C@@H]32)cc([C@@H](CF)c2ccccc2)n1` (single isomer, unassigned) [Example 165, N^4-((1R,5S,6r)-3-Oxabicyclo[3.1.0]hexan-6-yl)-6-((S*)-2-fluoro-1-phenylethyl)-N^2-methylpyridine-2,4-dicarboxamide], the IC50 in assay [1] (setting [3]) is 1 to 10 µM.
